We go through two compounds from patent US5428031A, “Methods of treating cardiac arrhythmia” (priority 1993, dated 1995).

The subject of series [1] is guinea pig ventricular myocytes. Nature of the series: current-clamp action potential duration (APD90) in isolated myocytes, 0.2 Hz. The format is cell-based. Particulars: Cavia porcellus, Ventricular myocyte, 4 cells. On the procedure: Guinea pig ventricular myocytes were isolated using a modification of the procedure described by Mitra R and Morad M., "A Uniform Enzymatic Method for Dissociation of Myocytes from Hearts and Stomachs of Nertilorates", Am. J. Physiol. 249:H1056-60 (1985). Excised hearts were perfused through the aorta (retrograde fashion) at a rate of 10 ml/min with oxygenated, warmed (37° C.) solutions described below. The heart was initially perfused for 7 minutes with a Tyrode's solution containing, in mM: 132 NaCl, 4 KCl, 1.2 MgCl2, 10 HEPES (formal name N-2-Hydroxyethylpiperazine-N-2-ethanesulfonic acid), 5 glucose, pH=7.2. The head was then perfused with the same nominally Ca^2+ -free solution containing 150 units/ml Type II collagenase (Worthington) and 0.5 units/ml Type XIV protease (Sigma) for 8 minutes. This perfusate was followed by a Tyrode's solution containing 0.2 mM CaCl2 (without enzymes) for 5 minutes. The digested ventricles were cut into small pieces and gently shaken until cells were visibly dispersed. […]
The suction microelectrode technique described by Giles, W. R. and Shibata, E. F., "Voltage clamp of bull-frog cardiac pacemaker cells: a quantitative, analysis of potassium currents". […]
To record action potentials, single cells were bathed in 1.8 mM Ca^2+ -Tyrode's solution. […] Data were analyzed as percent (%) change in action potential duration at 90% of repolarization (APD90). […]

In series [2] the test system is conscious dogs. Nature of the series: electrocardiographic QT interval in conscious dogs, oral. The format is in vivo, dog. How it is done: Trained, female mongrel dogs, in the weight range of 8 to 16 kg and instruimented with chronic arterial access ports, were deprived of food 18 to 24 hours prior to the study. At test time, the dog was placed in an Alice King Chatham nylon mesh sling for light restraint. Four Grass Instrument Co. Type E2 Platinum Subdermal Electrodes were affixed to the limbs of the dog and connected to a Hewlett-Packard 4700A Cardiograph multi-lead electrocardiogram (ECG) recorder. After approximately a 30-minute stabilization period, one or two pretreatment Lead II ECG tracings were taken over approximately a 30-second interval. Dogs were then dosed via gavage with labrafil (vehicle) or test compound. The volume, administered was 2.0 ml/kg followed by a 15 ml tap-water flush. Lead II ECG recordings were obtained at 15, 30, and 60 minutes and every 30 minutes thereafter for five hours post-drug administration. Dogs were also monitored for blood pressure changes via a Modular Instruments data acquisition system and transducer connected to the arterial access port. Final ECG traces were taken at approximately 24 hours post-treatment. Average QT interval lengths were determined for each time point and QTc values were calculated to correct for variations in heart rate (QTc =QT/√R-R).

Series [3] deals with anesthetized dogs. Put plainly: frequency-dependent effects on cardiac (ventricular) refractory period in anesthetized dogs. The format is in vivo, dog. The settings on record: 1.0 mg/kg i.v. On the procedure: Purpose-bred male or female mongrel dogs (9.8-10.8 kg) were anesthetized with alpha chloralose (80-100 mg/kg i.v.), and the animals were ventilated using a volume-cycled respirator. The right femoral artery and vein were isolated and cannulated for the measurement of systemic arterial pressure and for test agent administration, respectively. A right thoracotomy was performed in the 4th intercostal space, the pericardium incised, and the heart suspended in a pericardial cradle. One stainless steel bipolar plunge electrode was sutured to the ,anterior surface of the right ventricle for the determination of ventricular excitation threshold and refractory periods, while a second stainless steel bipolar plunge electrode was sutured to the right ventricular apex for ventricular pacing. A 21 gauge stainless steel hypodermic needle attached to a 1 ml syringe containing 40% formaldehyde was introduced into the right atrium via a stab wound and purse-string suture. The atrioventricular (AV) node was identified and then chemically ablated with formaldehyde using the method of Steiner and Kovalik (Steiner C. and Kovalik A. T. W., "A simple technique for production of chronic complete heart block in dogs", J. Appl. Physiol. 25: 631-632:, 1968). After the ablation of the AV node, heart rate was controlled and maintained at either 60 or 150 beats/min, as dictated by the experimental protocol, by ventricular apical pacing. Limb electrodes were attached for the continuous recording of Lead II electrocardiogram.
Ventricular excitation threshold (ET) and relative refractory periods (RRPs) were determined alternately at heart rates of 60 and 150 beats/min using an extrastimulus technique described previously (Wallace A. A. et. al., "Cardiac electrophysiologic and inotropic actions of new and potent methanesulfonanilide Class III antiarrhythmic agents in the anesthetized dog". J. Cardiovasc. Pharmacol. 18: 687-695, 1991). Ventricular excitation threshold was defined as the minimum current required to evoke a propagated response for a ventricular extrastimulus introduced at a coupling interval of 250-300 msec after a basic ventricular apical beat. The ventricular relative refractory period was defined as the longest coupling interval failing to elicit a propagated response for a ventricular extrastimulus introduced with a current intensity of 2× the ventricular excitation threshold. Multiple alternating baseline 60 and 150 beat/min RRPs were measured in each preparation, with two-to-three stable consecutive baseline RRP determinations required prior to administration of the test agent.
The compound of Example 26 was administered intravenously at a dosage of 1.0 mg/kg over a period of 5 minutes to a group of 5 anesthetized dogs. The compound of Example 26 was infused in a vehicle of 2% cremophor/2% ethanol/96% saline, at a test agent concentration of 0.5 mg/ml. Ventricular RRPs at 60 and 150 beats/min were redetermined immediately, 15 and 30 minutes following the intravenous administration of the compound of Example 26. The frequency-dependence of the activity of the compound of Example 26 was assessed by comparing absolute increases in ventricular RRPs from the final corresponding baseline value determined at slower (60 beat/min) vs faster (150 beat/min) heart rates.

The structures appear in SMILES notation.

Compound `Cc1cccc(NC(=O)N[C@@H]2N=C(c3ccccc3)c3ccccc3N(C)C2=O)c1` [Compound 4, (R)-N-(2,3-dihydro-1-methyl-2-oxo-5-phenyl-1H-1,4-benzodiazepin-3-yl)-N'-(3-methylphenyl)urea] returned a percent increase in APD90 at 5 µM in series [1] of 202%. In addition, in series [2], the “other ECG or cardiovascular effects” value was “no other ECG or cardiovascular effects” and the “prolongation of ECG QT interval” value is given as “dose-related prolongation of ECG QT interval”.
As to `CN1C(=O)[C@H](NC(=O)/C=C/c2ccc(Cl)cc2Cl)N=C(c2ccccc2)c2ccccc21` [Example 26, E-(+)-N-[(3R)-2,3-Dihydro-1-methyl-2-oxo-5-phenyl-1H-1,4-benzo-diazepin-3-yl]-3-(2,4-dichlorophenyl)-2-propenamide], the “Increase in Ventricular Relative Refractory Period above baseline” value is 19.2 ± 3.4 ms in series [3] (60 beat/min, 15 Min); 14.0 ± 2.3 ms in series [3] (60 beat/min, 30 Min); 29.6 ± 4.4 ms in series [3] (60 beat/min, Immediate); 15.6 ± 4.1 ms in series [3] (150 beat/min, 15 Min); 11.4 ± 4.4 ms in series [3] (150 beat/min, 30 Min); 23.2 ± 7.3 ms in series [3] (150 beat/min, Immediate). Moreover, the “frequency dependence of increase in ventricular RRP” value in series [3] (60 and 150 beat/min) was “Equivalent increases in the ventricular RRPs”.
